Laboratory results taken from US20080070972A1, “Controlled release formulations” (priority 2006, published 2008).

Tests used:
[1] = Bulk, granule and pellet density measurement; type: physicochemical
From the text: (§1) The increase in density of the granulated material relative to the non-granulated material results in improved flow characteristics which facilitate easier handling during manufacturing processes such as formulation. Bulk and granulated densities can be measured with a measuring cylinder. The values for the bulk (ρb) and tap (ρt) densities can be used to calculate index of compressibility (% Compressibility), which is indicative of the flow properties of the material. The % Compressibility can be calculated by the following formula: % Compressibility=[(ρt−−ρb)/ρt-]×100%. See, e.g., The theory and practice of industrial pharmacy, by L. Lachman, H. Lieberman, and J. Kanig, in Varghese Publishing House, 3rd Indian Edition, (Hind Rajasthan Bldng, Dadar Bombay 400 014), 1987, p. 184. Also, flowability of the material can be determined by Flodex analysis. The Flodex Test Apparatus is ideal for determining the intrinsic flowability of powders (which is recommended for quality control of powders). The Flodex instrument includes a complete set of index flow disks with opening of different diameter. A tested powder is allowed to flow through the opening. […] See, e.g., Composite Method to Quantify Powder Flow as a Screening Method in Early Tablet or Capsule Formulation Development, by Michael K. Taylor, Jeri Ginsburg, Anthony Hickey, and Ferdous Gheyas, in AAPS PharmSciTech, 2000, 1(3): article 18.

[2] = Flowability of the bulk material; type: physicochemical; conditions: 500 μm sieved bulk non-granulated material
From the text: as §1

[3] = Regional absorption studies; conditions: in vivo

density of the bulk material ([1]; 500 μm sieved bulk non-granulated material): around 0.24 g/cm^3
density of the natural form ([1]; natural (non-granulated) form): about 0.2 g/cm^3
flowability [2]: very poor flowability
regional absorption [3]: colonic absorption
SMILES: CCO[C@@H]1OC(=O)C[C@@H]1NC(=O)[C@@H]1CCCN1C(=O)[C@@H](NC(=O)c1ccc(N)c(Cl)c1)C(C)(C)C [compound of Formula (I)]
